The values below come from paper PMC6628435, “Chemical Synthesis, Proper Folding, Nav Channel Selectivity Profile and Analgesic Properties of the Spider Peptide Phlotoxin 1” (Toxins, 2019).

Bridge positions count the residues as written; N and C are the ends. Peptide text beside a SMILES is read from it.

Common to all, as to type: cell-based
One assay deals with T1, hNav1.6 (Homo sapiens, UniProt Q9UQD0).
T1 construct: expressed in transfected cells; host or cells: HEK293 cells
The experiment in a line: Automated patch-clamp dose-response on hNav1.6 expressed in HEK293 cells. The following applies: 15 to 23 cells per concentration, read-out: calculated IC50. The source says: Following our initial screen for the selectivity of synthetic PhlTx1 and the discovery that Nav1.7 was the main target, we decided to further evaluate the activity of PhlTx1. We used a CHO mammalian cell line expressing the human Nav1.7 instead of Xenopus oocytes for the pharmacological evaluation. To this end, we used an automated patch-clamp system, the Nanion syncropatch 384PE, and a standardized robotic method from Beckmann to apply PhlTx1 in the recording chambers and collect the kinetic information of Nav1.7 current from a high number of Nav1.7-expressing cells. The syncropatch 384PE has the potential to record from 384 cells at a time. 100-ms pulses from −100 mV to −10 mV were applied at a frequency of 0.2 Hz and various concentrations of PhlTx1 were applied to the cells. An example of a Nav1.7 current recording is illustrated in Figure 6A along with the effect of 100 nM PhlTx1. […]
PhlTx1 and other Nav1.7-acting toxins were investigated on CHO cells expressing the human Nav1.7 channel using the Automated patch-clamp system from Nanion (München, Germany), the SyncroPatch 384PE. […] Percentages of current inhibitions were measured at the end of a 12- to 15-min application time (12-min for fast blocking toxins; 15-min for slow blocking ones). […]

The next assay has as its target T2, hNav1.7 (Homo sapiens, UniProt Q15858).
T2 construct: expressed in transfected cells
The experiment in a line: Manual patch clamp, reversibility of block of hNav1.7 currents. The source says:
Following our initial screen for the selectivity of synthetic PhlTx1 and the discovery that Nav1.7 was the main target, we decided to further evaluate the activity of PhlTx1. We used a CHO mammalian cell line expressing the human Nav1.7 instead of Xenopus oocytes for the pharmacological evaluation. To this end, we used an automated patch-clamp system, the Nanion syncropatch 384PE, and a standardized robotic method from Beckmann to apply PhlTx1 in the recording chambers and collect the kinetic information of Nav1.7 current from a high number of Nav1.7-expressing cells. The syncropatch 384PE has the potential to record from 384 cells at a time. 100-ms pulses from −100 mV to −10 mV were applied at a frequency of 0.2 Hz and various concentrations of PhlTx1 were applied to the cells. An example of a Nav1.7 current recording is illustrated in Figure 6A along with the effect of 100 nM PhlTx1. It is of interest to note that current inhibition develops over time at this PhlTx1 concentration that is above 50% at the end of a 13-min application time. […] Note that the highest achievable inhibition was 85%–92% for the two most efficient concentrations (333 nM and 1 μM). The time constant of inhibition was concentration-dependent as expected and could be fitted with decreasing mono-exponentials with time constants of 253 s (33 nM, n = 4), 159 s (100 nM, n = 8), 97 s (333 nM, n = 6) and 36 s (1 μM, n = 8). […] Using a manual patch clamp, which is better suited to investigate current recovery from block than an automated patch clamp that requires several washing steps, we investigated the reversibility properties of a PhlTx1 block. […] After 16 min of washout of 100 nM PhlTx1, we observed a maximum of 32% recovery of the blocked current that occurred with a time constant of 303 s. Since Nav1.4 and Nav1.6 were the two most sensitive channels to the PhlTx1 block, we also performed dose-response curves for these two channels with the automated patch clamp system.
Figure 6 PhlTx1 inhibition of Nav1.7 channels expressed in a mammalian cell line. […]

Another assay deals with T3, Nav1.7/β1 (Rattus norvegicus, UniProt O08562).
T3 construct: expressed in transfected cells; host or cells: Xenopus laevis oocytes injected with cRNA
T3 sequence (O08562 whole entry): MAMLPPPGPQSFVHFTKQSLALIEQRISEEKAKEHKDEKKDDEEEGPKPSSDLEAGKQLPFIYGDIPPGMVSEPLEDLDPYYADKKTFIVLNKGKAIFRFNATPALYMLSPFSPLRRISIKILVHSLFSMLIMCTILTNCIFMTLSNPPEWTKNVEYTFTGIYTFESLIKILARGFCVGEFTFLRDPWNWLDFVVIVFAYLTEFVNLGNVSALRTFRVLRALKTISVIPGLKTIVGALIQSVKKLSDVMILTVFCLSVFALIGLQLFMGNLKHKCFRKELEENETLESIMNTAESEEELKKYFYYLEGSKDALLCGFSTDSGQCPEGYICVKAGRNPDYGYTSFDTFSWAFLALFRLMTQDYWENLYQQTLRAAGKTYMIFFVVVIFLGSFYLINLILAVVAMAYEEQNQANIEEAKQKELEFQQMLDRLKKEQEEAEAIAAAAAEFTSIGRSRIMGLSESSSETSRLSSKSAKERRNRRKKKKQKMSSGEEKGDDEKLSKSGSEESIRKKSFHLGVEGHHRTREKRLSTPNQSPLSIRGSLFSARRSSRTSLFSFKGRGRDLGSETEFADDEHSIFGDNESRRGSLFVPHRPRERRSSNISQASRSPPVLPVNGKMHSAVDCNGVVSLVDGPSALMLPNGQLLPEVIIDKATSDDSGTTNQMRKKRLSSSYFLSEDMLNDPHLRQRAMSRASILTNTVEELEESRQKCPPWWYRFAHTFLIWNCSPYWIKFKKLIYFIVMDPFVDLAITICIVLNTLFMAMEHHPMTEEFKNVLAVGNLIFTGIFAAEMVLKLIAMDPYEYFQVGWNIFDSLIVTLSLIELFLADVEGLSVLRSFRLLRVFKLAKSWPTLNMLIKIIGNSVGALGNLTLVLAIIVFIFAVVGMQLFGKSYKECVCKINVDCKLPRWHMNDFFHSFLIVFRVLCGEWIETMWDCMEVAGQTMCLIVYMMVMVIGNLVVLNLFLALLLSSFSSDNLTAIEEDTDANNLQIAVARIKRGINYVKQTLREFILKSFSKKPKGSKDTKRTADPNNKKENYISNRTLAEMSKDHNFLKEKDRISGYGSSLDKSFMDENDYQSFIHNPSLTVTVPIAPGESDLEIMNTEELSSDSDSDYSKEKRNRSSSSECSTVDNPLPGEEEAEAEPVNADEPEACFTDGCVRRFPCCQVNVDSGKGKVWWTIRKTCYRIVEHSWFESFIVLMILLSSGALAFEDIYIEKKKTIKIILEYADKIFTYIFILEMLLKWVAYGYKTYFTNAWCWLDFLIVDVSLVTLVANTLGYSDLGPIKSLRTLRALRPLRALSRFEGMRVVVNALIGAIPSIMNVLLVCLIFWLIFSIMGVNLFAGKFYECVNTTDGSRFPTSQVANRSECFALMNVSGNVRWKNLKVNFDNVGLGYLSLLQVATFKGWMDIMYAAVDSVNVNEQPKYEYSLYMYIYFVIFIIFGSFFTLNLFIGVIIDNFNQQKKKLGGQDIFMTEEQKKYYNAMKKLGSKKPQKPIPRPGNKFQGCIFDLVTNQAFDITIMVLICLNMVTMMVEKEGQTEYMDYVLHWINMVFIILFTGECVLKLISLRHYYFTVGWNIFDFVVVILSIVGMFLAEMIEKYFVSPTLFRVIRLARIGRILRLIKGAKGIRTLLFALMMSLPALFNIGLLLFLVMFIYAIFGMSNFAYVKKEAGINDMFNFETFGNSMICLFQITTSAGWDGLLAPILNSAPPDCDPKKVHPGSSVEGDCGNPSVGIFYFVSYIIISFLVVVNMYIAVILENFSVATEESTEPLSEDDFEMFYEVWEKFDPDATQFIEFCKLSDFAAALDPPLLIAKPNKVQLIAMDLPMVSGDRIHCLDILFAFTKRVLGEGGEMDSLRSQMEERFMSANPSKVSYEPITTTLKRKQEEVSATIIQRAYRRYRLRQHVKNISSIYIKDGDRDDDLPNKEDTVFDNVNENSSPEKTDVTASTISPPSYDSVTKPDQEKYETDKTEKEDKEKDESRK
T3 sequence (Q00954 19-218 partner): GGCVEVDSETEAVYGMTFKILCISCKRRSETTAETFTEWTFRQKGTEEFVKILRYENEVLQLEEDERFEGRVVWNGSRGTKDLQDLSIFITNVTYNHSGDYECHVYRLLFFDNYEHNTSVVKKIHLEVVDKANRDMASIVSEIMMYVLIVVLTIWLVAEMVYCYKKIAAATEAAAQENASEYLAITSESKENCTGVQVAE
The experiment in a line: Two-electrode voltage-clamp on Xenopus laevis oocytes expressing Nav1.7/β1.

T2 sequence (Q15858 whole entry): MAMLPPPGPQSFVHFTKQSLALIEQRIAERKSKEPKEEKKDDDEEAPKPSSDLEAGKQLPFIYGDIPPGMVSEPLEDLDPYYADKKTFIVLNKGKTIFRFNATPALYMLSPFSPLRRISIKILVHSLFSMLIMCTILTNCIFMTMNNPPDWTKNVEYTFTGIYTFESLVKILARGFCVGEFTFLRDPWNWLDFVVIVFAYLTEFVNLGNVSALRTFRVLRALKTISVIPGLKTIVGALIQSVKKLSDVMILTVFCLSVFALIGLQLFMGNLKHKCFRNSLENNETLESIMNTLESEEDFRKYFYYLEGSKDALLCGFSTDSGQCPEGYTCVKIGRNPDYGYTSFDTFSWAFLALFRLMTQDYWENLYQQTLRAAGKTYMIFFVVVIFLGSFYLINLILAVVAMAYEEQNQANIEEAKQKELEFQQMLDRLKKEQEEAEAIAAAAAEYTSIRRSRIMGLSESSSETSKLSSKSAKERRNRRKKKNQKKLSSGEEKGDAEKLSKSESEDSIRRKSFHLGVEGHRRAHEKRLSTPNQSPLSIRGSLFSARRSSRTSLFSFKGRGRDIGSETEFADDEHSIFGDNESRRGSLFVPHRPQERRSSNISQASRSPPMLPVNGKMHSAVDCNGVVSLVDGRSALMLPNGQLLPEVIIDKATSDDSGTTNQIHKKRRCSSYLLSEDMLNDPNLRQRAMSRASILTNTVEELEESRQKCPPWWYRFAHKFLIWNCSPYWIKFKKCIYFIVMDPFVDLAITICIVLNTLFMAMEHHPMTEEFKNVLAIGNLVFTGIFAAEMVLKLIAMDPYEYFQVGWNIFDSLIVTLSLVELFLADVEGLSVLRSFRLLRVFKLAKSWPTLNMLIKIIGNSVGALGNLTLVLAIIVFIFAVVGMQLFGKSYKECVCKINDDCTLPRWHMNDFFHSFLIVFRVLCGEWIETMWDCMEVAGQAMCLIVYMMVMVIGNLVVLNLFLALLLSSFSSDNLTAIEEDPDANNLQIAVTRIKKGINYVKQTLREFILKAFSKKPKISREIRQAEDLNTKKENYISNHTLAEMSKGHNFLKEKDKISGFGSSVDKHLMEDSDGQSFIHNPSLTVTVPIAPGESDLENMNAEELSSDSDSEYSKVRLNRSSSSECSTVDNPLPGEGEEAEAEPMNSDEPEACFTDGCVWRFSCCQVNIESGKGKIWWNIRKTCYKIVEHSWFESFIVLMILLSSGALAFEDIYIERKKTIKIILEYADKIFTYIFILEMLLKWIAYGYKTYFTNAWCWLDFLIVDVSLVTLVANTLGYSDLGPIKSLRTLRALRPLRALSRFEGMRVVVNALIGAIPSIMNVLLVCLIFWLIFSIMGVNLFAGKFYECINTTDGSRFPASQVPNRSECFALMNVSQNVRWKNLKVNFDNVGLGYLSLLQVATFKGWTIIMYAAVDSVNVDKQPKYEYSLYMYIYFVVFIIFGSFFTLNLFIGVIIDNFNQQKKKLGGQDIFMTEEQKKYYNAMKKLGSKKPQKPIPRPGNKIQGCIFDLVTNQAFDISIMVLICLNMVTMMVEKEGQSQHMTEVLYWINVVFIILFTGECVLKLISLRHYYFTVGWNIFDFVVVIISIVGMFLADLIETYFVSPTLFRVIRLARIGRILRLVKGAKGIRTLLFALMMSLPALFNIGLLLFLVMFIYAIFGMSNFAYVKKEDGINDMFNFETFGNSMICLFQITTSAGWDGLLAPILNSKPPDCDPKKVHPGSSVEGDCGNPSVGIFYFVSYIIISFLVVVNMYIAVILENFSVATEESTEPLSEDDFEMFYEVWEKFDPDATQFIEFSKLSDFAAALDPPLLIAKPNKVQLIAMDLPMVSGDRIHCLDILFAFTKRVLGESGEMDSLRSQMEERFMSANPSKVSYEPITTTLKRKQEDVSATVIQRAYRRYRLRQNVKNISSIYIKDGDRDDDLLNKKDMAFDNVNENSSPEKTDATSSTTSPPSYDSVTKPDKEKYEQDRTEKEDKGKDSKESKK

As to `CC(C)C[C@@H]1NC(=O)[C@@H](NC(=O)[C@H](C)N)CSSC[C@@H]2NC(=O)[C@@H]3CSSC[C@@H](C(=O)N[C@@H](CCCNC(=N)N)C(=O)N[C@@H](Cc4ccc(O)cc4)C(=O)N[C@@H](CCCCN)C(=O)N[C@@H](CC(C)C)C(=O)N[C@@H](Cc4ccccc4)C(=O)O)NC(=O)[C@H](Cc4c[nH]c5ccccc45)NC(=O)[C@@H]4CCCN4C(=O)[C@H](Cc4ccc(O)cc4)NC(=O)[C@H](CCCCN)NC(=O)[C@H](Cc4c[nH]c5ccccc45)NC(=O)[C@H](CCC(=O)O)NC(=O)[C@H](CSSC[C@H](NC(=O)[C@H](CO)NC(=O)[C@H](CC(=O)O)NC(=O)[C@H](Cc4c[nH]c5ccccc45)NC(=O)[C@H](CCC(N)=O)NC(=O)CNC1=O)C(=O)N[C@@H](CC(=O)O)C(=O)N1CCC[C@H]1C(=O)N[C@@H](CCCCN)C(=O)N[C@@H](C)C(=O)N[C@@H](CO)C(=O)N[C@@H](CCCCN)C(=O)N3)NC(=O)[C@H](C)NC(=O)[C@H](Cc1ccc(O)cc1)NC(=O)[C@H](CC(N)=O)NC(=O)[C@@H]1CCCN1C2=O` [PhlTx1, Phlotoxin-1] (H-ACLGQWDSCDPKASKCCPNYACEWKYPWCRYKLF-OH; disulfide 2-17, 9-22, 16-29; N-terminus and C-terminus assumed), the 50% inhibitory concentration (IC50) on hNav1.6 was more than 3 µM; at Nav1.7/β1 (Xenopus laevis oocytes, stimulus frequency 0.3 Hz, Hill equation fit, n = 4, 0.1% BSA) it was 0.26 ± 0.046 µM. The reversibility of block entry on hNav1.7 was “partially and poorly reversible”. For the same compound, the “maximum recovery of the blocked current” value at hNav1.7 (after 16 min of washout of 100 nM PhlTx1, n = 5 cells) is on record as not above 32%. Moreover, the “time constant of recovery from block” value at hNav1.7 (washout of 100 nM PhlTx1, n = 5 cells) was 303 s. On Nav1.7/β1 (1 µM, holding −90 mV, oocytes TEVC, clone rPN1, read-out: inhibition of inward currents), the inhibition at 1 µM worked out at 90 ± 7%. At Nav1.7/β1 (Xenopus laevis oocytes, stimulus frequency 0.3 Hz, n = 4), the Hill coefficient is recorded as 1.3.
